Converted amounts (≈) assume the structure as drawn. Like-named read-outs stand apart in the source and are kept apart here.
Tests used:
Assay type in all cases: in vivo
[1] = system: resistant strain of green rice leafhopper (Nephotetix cincticecs); experiment: Test Example 3: LC50 against adults of a resistant strain of green rice leafhopper (rice seedling dipping); conditions: Nephotettix cincticeps, 24 h, read-out: LC50 value
Experimental: The emulsifiable concentrates of the following present compounds and control compounds obtained according to Formulation example 2 were each diluted with water to a prescribed concentration, and rice seedlings (about 12 cm in length) were dipped for 1 minute in the resulting aqueous dilute solutions. After air-drying, the seedlings were placed in test tube, and 10 adults of a resistant strain of green rice leafhopper (Nephotetix cincticecs) were liberated in the tube. After one day, the dead and alive of the adults were examined to obtain LC50 (50% lethal concentration)(two replications).

[2] = system: common mosquito (Culex pipiens pallens); experiment: Test Example 1: mortality of larvae and inhibition of emergence of common mosquito; conditions: for Inhibitory ratio of emergence: 3.5 ppm, counted when all mosquitoes of no treatment group had emerged; for mortality at 3.5 ppm: Culex pipiens, 24 h, last instar larvae, after one day
Experimental: The emulsifiable concentrates of the following present compounds obtained according to Formulation example 2 were each diluted with water so as to obtain respective aqueous solutions containing 3.5 ppm of said compounds, respectively. One hundred ml of thus diluted aqueous solutions were poured into respective polyethylene cups of 180 ml volume, and 20 of the last instar larvae of common mosquito (Culex pipiens pallens) were liberated thereto. After one day, the dead or alive of the larvae were examined. Thereafter, the feed was added to respective cups and the number of emerged mosquitoes of the respective cups was counted when all the mosquitoes of no treatment group had […] to calculate the inhibitory ratios of the emergence. The mortality and the inhibitory ratio of the emergence are shown according to the following three criteria: mortality: A; 90% or more, […] inhibitory: A; 90% or more, ratio of emergence B; less than 90% to 80% C; less than 80%.

[3] = system: carmine spider mite (Tetranychus cinnabarinus); experiment: Test Example 8: degree of damage of kidney bean plant by carmine spider mite; set-up: key: -: No damage is observed.; +: Slight damage is observed.; ++: The same damage as in the untreated plot is observed; conditions: 500 ppm, sprayed 15 ml/pot plus 2 ml to soil; after 8 days; 25° C.
Experimental: The female adults of carmine spider mite (Tetranychus cinnabarinus) were put at a rate of 10 adults/leaf on the leaves of potted kidney bean (at the primordial leaf stage) which had elapsed 7 days after sowing, and placed in a constant-temperature room kept at 25° C. After 6 days, the 200-fold aqueous dilute solutions (corresponding to 500 ppm), prepared from the emulsifiable concentrates of the following present compounds and control compounds prepared according to Formulation example 2, were each sprayed at a rate of 15 ml/pot on a turn table. At the same time, the soil in the pot was treated with 2 ml of each aqueous solution. After 8 days, the degree of damage of the plant by the mite was examined.
-: No damage is observed.
+: Slight damage is observed.
++: The same damage as in the untreated plot is observed.

[4] = system: young Japanese carp (Cyprinida carpio); experiment: Test Example 9: fish toxicity test; conditions: forty-eight hours, 25°±1° C., Probit method, 2880 min
Experimental: Twenty liters of each of the aqueous solutions containing the prescribed concentrations of the present compounds and comparative control one, and 10 young carp were liberated thereto. Forty-eight hours after, the dead and alive carp were examined to obtain LC50 value, (50% lethal concentration) according to Probit method. All the tests were carried out in thermostatic aquaria whose temperatures were kept at 25°±1° C.
young Japanese carp (Cyprinida carpio)
Average body length ±S.D.: 2.94±0.19 cm.
Average body weight ±S.D.: 0.65±0.13 g.

[5] = system: brown rice planthoppers (Nilaparavata lugens); experiment: Test Example 7: mortality and residual effect on brown rice planthoppers on sprayed potted rice plants; conditions: Oryza sativa, 24 h
Experimental: The emulsifiable concentrates of the following compounds and control compounds obtained according to Formulation example 2 were each diluted with water one thousand times (corresponding to 100 ppm) and each of thus prepared solutions was sprayed at the rate of 20 ml/2 pots to the rice plant seedlings planted in Wagner pots having a surface area of one ten thousandth are. After air-drying, the threated plants were covered with the iron wire cages, and about 15 adults of brown rice planthoppers (Nilaparavata lugens) were liberated thereto. Further, about 15 adults thereof were also liberated thereto 4 days after the application to examine the residual effects. Twenty four hours after each liberation, the dead and alive adults were examined to calculate the mortality.

[6] = system: tobacco cutworms (Spodoptera litura); experiment: Test Example 2: mortality of tobacco cutworm 4th instar larvae on treated artificial feed; conditions: 144 h, 2 ml in 13 g artificial feed, six days after, two replications
Description: Two ml of thus diluted solutions were impregnated into the artificial feeds (13 g) for tobacco cutworms (Spodoptera litura) and thus prepared feeds were placed in polyethylene cups of 11 cm in diameter, respectively. Ten of the 4th instar larvae were liberated thereon.
Six days after, the dead and alive of the larvae were examined to calculate the mortality (two replications).

[7] = system: brown rice planthopper (Nilaparvata lugens); experiment: Test Example 4: LC50 against adults of brown rice planthopper (rice seedling dipping); conditions: 24 h, rice seedlings dipped, 10 adults, after one day, two replications
Description: After air-drying, the seedlings were placed in a test tube, and 10 adults of brown rice planthopper (Nilaparvata lugens) were liberated in the tube.

[8] = system: rice stem borer (Chilo suppressalis); experiment: Test Example 5: LC50 against rice stem borer larvae (artificial feed); conditions: larvae 10 days old, two replications
Description: Ten of the larvae of the 10 days old were liberated thereon.

[9] = system: houseflies (Musca domestica) of WHO strains; experiment: Test Example 6: LC50 against adult female houseflies of WHO strains (sucrose bait); conditions: filter paper with sucrose bait, adult females, after 48 hours, two replications
Description: Thirty milligrams of sucrose were uniformly placed on the filter paper as bait. Thereafter, 10 adult female houseflies (Musca domestica) of WHO strains were liberated in the cup, which was then covered witha lid.

[10] = rice seedlings dipped 1 minute, 10 adults, after one day, two replications
[11] = read-out: Mortality (%) liberated 4 days after application
[12] = read-out: Mortality (%) liberated just after air-drying

Row | Compound | LC50 [1, 10] | Inhibitory ratio of emergence [2] | mortality at 3.5 ppm [2] | Degree of damage [3] | LC50 value (fish toxicity) [4] | mortality at 100 ppm [5, 11] | mortality at 100 ppm [5, 12] | LC50 [1] | mortality at 150 ppm [6] | LC50 [7] | LC50 [8] | LC50 [9]
1 | C#CC(C)(CCCc1ccc(F)c(Oc2ccccc2)c1)c1ccc(C(F)(F)F)cc1 (stereo not shown) [(37), 3-(4-Trifluoromethylphenyl)-3-methyl-6-(3-phenoxy-4-fluorophenyl)-1-hexyne] | 14 µg/mL (≈ 32.8 µM) | A (90% or more) | > 90% |  |  |  |  |  |  |  |  | 
2 | CCOC(=O)CC(SP(=S)(OC)OC)C(=O)OCC (stereo not shown) [(D), Malathion, reference compound] | ~500 µg/mL (≈ 1510 µM) |  |  |  |  |  |  |  |  |  |  | 
3 | C#CC(C)(CCCc1ccc(F)c(Oc2ccccc2)c1)c1ccc(OCC)cc1 (stereo not shown) [(4), 3-(4-Ethoxyphenyl)-3-methyl-6-(3-phenoxy-4-fluorophenyl)-1-hexyne] |  | A (90% or more) | > 90% | - | > 10 ppm | 100% | 100% |  |  |  |  | 
4 | C#CC(C)(CCCc1cccc(Oc2ccccc2)c1)c1ccc(C(F)(F)F)cc1 (stereo not shown) [(13), 3-(4-Trifluoromethylphenyl)-3-methyl-6-(3-phenoxyphenyl)-1-hexyne] |  | A (90% or more) | > 90% | - |  |  |  | 10 µg/mL (≈ 24.5 µM) | 100% |  |  | 
5 | CCC(C)(CCCc1cccc(Oc2ccccc2)c1)c1ccc(Cl)cc1 (stereo not shown) [(A), reference compound] |  |  |  | + ~ ++ |  | 44% | 71% | ~500 µg/mL (≈ 1320 µM) |  | > 500 µg/mL | 230 µg/mL (≈ 607 µM) | ~500 µg/mL (≈ 1320 µM)
6 | C#CC(C)(CCCc1cccc(Oc2ccccc2)c1)c1ccc(OCC)cc1 (stereo not shown) [(3), 3-(4-ethoxyphenyl)-3-methyl-6-(3-phenoxyphenyl)-1-hexyne] |  | A (90% or more) | > 90% | - | > 10 ppm | 95% | 100% |  |  |  |  | 
